What all share (type): cell-based
One experiment concerns the target T1, CRBN (Homo sapiens, UniProt Q96SW2).
T1 construct: expressed in transfected cells; host or cells: HEK293T
Nature of the experiment: Competition Assay: MAPPIT-like, competition with trimethoprim-lenalidomide hybrid ligand for binding to CRBN in HEK293T cells. The note with it: protocol and reagents of Example 1; read-out: IC50 Competition.

The target in the next experiment is T2, SALL4 (Homo sapiens, UniProt Q96SW2+Q9UJQ4).
T2 construct: Full size proteins are fused for each of the target proteins tested; expressed in transfected cells; host or cells: HEK293T
Nature of the experiment: Recruitment Assay (MAPPIT-like): SALL4 recruitment, pSEL-SALL4+pMG1-CRBN. The note with it: recruitment of SALL4, protocol of Example 2; read-out: EC50_SALL4. How it is done:
(§1) In this experimental set-up, cells are transfected with a construct encoding a CRBN-fusion protein and another one encoding a substrate-fusion protein. Test compound activity is assessed with increasing concentrations of test compounds (dose-response studies) to monitor the ability to promote CRBN-ligand-induced protein interaction.
(§2) Full size proteins are fused for each of the target proteins tested, except in the case of IKZF1 where isoform 7 is used, and BRD4, where isoform 3 is applied. For the study, the following construct combinations are used: IKZF1 recruitment: pSEL-CRBN+pMG1-IKZF1(isoform 7); ASS1 recruitment: pSEL-CRBN+pMG1-ASS1; SALL4 recruitment: pSEL-SALL4+pMG1-CRBN; DHFR recruitment: pCLG-DHFR+pMG1-CRBN; ESR1 recruitment: pSEL-CRBN+pMG1-ESR1; BRD4 recruitment: pSEL-CRBN+pMG1-BRD4(isoform 3). Cells are treated with erythropoietin (Epo; where pSEL-type receptor fusions constructs are used) or leptin (in the case pCLG-type receptor fusion constructs are applied) without or with the indicated dose of test compound at 24 hours after transfection. Luciferase activity is measured 24 hours after test compound treatment using the Luciferase Assay System kit (PROMEGA, Madison, Wis.) with an Ensight plate reader (PERKIN ELMER LIFE SCIENCES, Waltham, Mass.). Data points depict fold induction of the average luciferase activity of triplicate samples from Epo or leptin+test compound treated cells versus Epo or leptin only treated cells. Error bars represent standard deviations. Curves are fit using 4-parameter nonlinear regression in […] PRISM software.

The target in a further experiment is T3, ASS1 (Homo sapiens, UniProt P00966+Q96SW2).
T3 construct: Full size proteins are fused for each of the target proteins tested; expressed in transfected cells; host or cells: HEK293T
The experiment in a line: Recruitment Assay (MAPPIT-like): ASS1 recruitment, pSEL-CRBN+pMG1-ASS1. Conditions: recruitment of ASS1, protocol of Example 2. The method, then: as §1, §2

By IC50 is commonly meant the concentration that inhibits the measured activity by half.

Regarding `CC(C)OC1c2ccccc2C(=O)N1C1CCC(=O)NC1=O` (stereo not shown) [3-(1-isopropoxy-3-oxo-isoindolin-2-yl)piperidine-2,6-dione], at CRBN, the 50% inhibitory concentration (IC50) turned out to be 22.9 µM. Besides, the EC50 at SALL4 was 2.7 µM. `Cc1nc2ccc(C#N)c(N)c2c(=O)n1C1CCC(=O)NC1=O` (stereo not shown) [Compound C10001, 5-amino-3-(2,6-dioxo-3-piperidyl)-2-methyl-4-oxo-quinazoline-6-carbonitrile]: the EC50 on SALL4 is 1.25 µM. Besides, at ASS1, the “EC50_ASS1 (M)” value is “>>”. With `O=C1CCC(N2C(=O)c3ccccc3C2NCc2ccccc2)C(=O)N1` (stereo not shown) [Compound C10239, 3-[1-(benzylamino)-3-oxo-isoindolin-2-yl]piperidine-2,6-dione], the EC50 at SALL4 stood at 1.16 µM. Turning to `CN(C)C1c2ccccc2C(=O)N1C1CCC(=O)NC1=O` (stereo not shown) [Compound C10981, 3-[1-(dimethylamino)-3-oxo-isoindolin-2-yl]piperidine-2,6-dione], on CRBN, the IC50 came out at 7.81 µM. Moreover, the EC50 on SALL4 worked out at 1.46 µM. Also, the “EC50_ASS1 (M)” value at ASS1 is listed as “>>”. On to `O=C1CCC(N2Cc3ccc(NCC(=O)NC4CCOCC4)cc3C2=O)C(=O)N1` (stereo not shown) [Compound C12693, 2-[[2-(2,6-dioxo-3-piperidyl)-3-oxo-isoindolin-5-yl]amino]-N-tetrahydropyran-4-yl-acetamide], for which the IC50 on CRBN was 8.33 µM. The EC50 at SALL4 worked out at 2.62 µM.

Regarding `O=C1CCC(N2Cc3ccc(NCC(=O)NC4CCOC4)cc3C2=O)C(=O)N1` (stereo not shown) [Compound C12694, 2-[[2-(2,6-dioxo-3-piperidyl)-3-oxo-isoindolin-5-yl]amino]-N-tetrahydrofuran-3-yl-acetamide], the EC50 at SALL4 turned out to be 3.43 µM. As to `Cc1ccc2nnn(C3CCC(=O)NC3=O)c(=O)c2c1` (stereo not shown) [Compound C16463, 3-(6-methyl-4-oxo-1,2,3-benzotriazin-3-yl)piperidine-2,6-dione], the IC50 on CRBN stood at 2.67 µM. On SALL4, the EC50 stood at 0.772 µM.

For `Cc1ccc2c(=O)n(C3CCC(=O)NC3=O)nnc2c1` (stereo not shown) [Compound C17800, 3-(7-methyl-4-oxo-1,2,3-benzotriazin-3-yl)piperidine-2,6-dione], the IC50 on CRBN worked out at 21.9 µM. Also, on SALL4, the EC50 turned out to be 0.904 µM. Regarding `O=C1CCC(n2nnc3ccccc3c2=O)C(=O)N1` (stereo not shown) [Compound C21223, 3-(4-oxo-1,2,3-benzotriazin-3-yl)piperidine-2,6-dione], the IC50 at CRBN amounted to 2.29 µM. The EC50 at SALL4 was 0.517 µM. Also, the “EC50_ASS1 (M)” value at ASS1 is “>>”. With `CN(C)CC(=O)Nc1cccc2c1CN(C1CCC(=O)NC1=O)C2=O` (stereo not shown) [Compound C22586, 2-(dimethylamino)-N-[2-(2,6-dioxo-3-piperidyl)-1-oxo-isoindolin-4-yl]acetamide], at CRBN, the half-inhibitory concentration (IC50) is 1.3 µM. The EC50 at SALL4 came to 1.14 µM. The matching figures for `Cc1ccc2c(c1)C(=O)N(C1CCC(=O)NC1=O)C2` (stereo not shown) [Compound C28620, 3-(6-methyl-1-oxo-isoindolin-2-yl)piperidine-2,6-dione]: 0.178 µM and 0.27 µM. On to `O=C1CCC(N2Cc3ccc(O)cc3C2=O)C(=O)N1` (stereo not shown) [Compound C28928, 3-(6-hydroxy-1-oxo-isoindolin-2-yl)piperidine-2,6-dione], for which the “EC50_ASS1 (M)” value on ASS1 was “>>”.

As for `CC(=O)NC1c2ccccc2C(=O)N1C1CCC(=O)NC1=O` (stereo not shown) [Compound C33779, N-[2-(2,6-dioxo-3-piperidyl)-3-oxo-isoindolin-1-yl]acetamide], on CRBN, the IC50 was determined as 49.4 µM. Besides, the EC50 at SALL4 was 3.03 µM. With `CC(=O)NCCNc1ccc2c(c1)CN(C1CCC(=O)NC1=O)C2=O` (stereo not shown) [Compound C35745, N-[2-[[2-(2,6-dioxo-3-piperidyl)-1-oxo-isoindolin-5-yl]amino]ethyl]acetamide], the concentration for half-maximal inhibition (IC50) at CRBN is 11.2 µM. Also, the EC50 at SALL4 was 2.63 µM. For `O=C(O)CNc1cccc2c1C(=O)N(C1CCC(=O)NC1=O)C2` (stereo not shown) [Compound C47998, 2-[[2-(2,6-dioxo-3-piperidyl)-3-oxo-isoindolin-4-yl]amino]acetic acid], on CRBN, the IC50 came to 6.59 µM. Further, at SALL4, the EC50 is 2.17 µM. Consider `N#Cc1ccc2c(c1)CN(C1CCC(=O)NC1=O)C2=O` (stereo not shown) [Compound C48005, 2-(2,6-dioxo-3-piperidyl)-1-oxo-isoindoline-5-carbonitrile], for which, at CRBN, the IC50 turned out to be 1.73 µM. Moreover, the EC50 at SALL4 was determined as 0.595 µM. Turning to `O=C1CCC(N2Cc3cc(-c4ccccc4)ccc3C2=O)C(=O)N1` (stereo not shown) [Compound C48016, 3-(1-oxo-5-phenyl-isoindolin-2-yl)piperidine-2,6-dione], the IC50 on CRBN was found to be 0.173 µM. Also, the EC50 on SALL4 came out at 0.122 µM.

As to `O=C1CCC(N2Cc3ccc(-c4ccccc4)cc3C2=O)C(=O)N1` (stereo not shown) [Compound C48018, 3-(1-oxo-6-phenyl-isoindolin-2-yl)piperidine-2,6-dione], the IC50 at CRBN was 0.228 µM. Besides, the EC50 on SALL4 amounted to 0.395 µM. As for `Cc1ccc(NC(=O)NCc2cc(C)c3c(c2)CN(C2CCC(=O)NC2=O)C3=O)cc1Cl` (stereo not shown) [Compound C58181, 1-(3-chloro-4-methyl-phenyl)-3-[[2-(2,6-dioxo-3-piperidyl)-7-methyl-1-oxo-isoindolin-5-yl]methyl]urea], on CRBN, the IC50 was 0.0291 µM. Further, the “EC50_ASS1 (M)” value at ASS1 is given as “>>”. In the case of `O=C1CCC(N2C(=O)C3=C(C2=O)c2ccccc2CC3)C(=O)N1` (stereo not shown) [Compound C64340, 2-(2,6-dioxo-3-piperidyl)-4,5-dihydrobenzo[e]isoindole-1,3-dione], the 50% inhibitory concentration (IC50) at CRBN was found to be 2500 µM. For the same compound, the EC50 at SALL4 is 1.49 µM. With `O=C1CCC(N2Cc3cc(Nc4ncccn4)ccc3C2=O)C(=O)N1` (stereo not shown) [Compound C80369, 3-[1-oxo-5-(pyrimidin-2-ylamino)isoindolin-2-yl]piperidine-2,6-dione], at CRBN, the IC50 was found to be 0.0415 µM. Moreover, the EC50 at ASS1 (read-out: EC50_ASS1) was 1.29 µM. As for `O=C1CCC(N2Cc3cc(Nc4ncnc5ccccc45)ccc3C2=O)C(=O)N1` (stereo not shown) [Compound C80373, 3-[1-oxo-5-(quinazolin-4-ylamino)isoindolin-2-yl]piperidine-2,6-dione], at CRBN, the IC50 amounted to 0.892 µM. Moreover, the “EC50_ASS1 (M)” value on ASS1 is “>>”. `O=C1CCC(N2Cc3cc(Nc4ncc5[nH]cnc5n4)ccc3C2=O)C(=O)N1` (stereo not shown) [Compound C80376, 3-[1-oxo-5-(7H-purin-2-ylamino)isoindolin-2-yl]piperidine-2,6-dione]: the EC50 on SALL4 amounted to 0.559 µM. With `O=C1CCC(N2Cc3ccc(Nc4ncc5c(n4)COC5)cc3C2=O)C(=O)N1` (stereo not shown) [Compound C80391, 3-[6-(5,7-dihydrofuro[3,4-d]pyrimidin-2-ylamino)-1-oxo-isoindolin-2-yl]piperidine-2,6-dione], on CRBN, the IC50 came to 0.163 µM. Besides, at SALL4, the EC50 was 0.152 µM. The like results for `O=C1CCC(N2Cc3ccc(NC(=O)c4cnc5nccn5c4)cc3C2=O)C(=O)N1` (stereo not shown) [Compound C80396, N-[2-(2,6-dioxo-3-piperidyl)-3-oxo-isoindolin-5-yl]imidazo[1,2-a]pyrimidine-6-carboxamide] were, in that order, 2.63 µM and 1.38 µM. For the compound `CC(Nc1ccc2c(c1)C(=O)N(C1CCC(=O)NC1=O)C2)C(=O)O` (stereo not shown) [Compound C84970, 2-[[2-(2,6-dioxo-3-piperidyl)-3-oxo-isoindolin-5-yl]amino]propanoic acid], on CRBN, the IC50 turned out to be 1.42 µM. For the same compound, the EC50 at SALL4 came out at 1.01 µM. Take `O=C1CCC(N2Cc3ccccc3C2)C(=O)N1` (stereo not shown) [Compound C87699, 3-isoindolin-2-ylpiperidine-2,6-dione]: the IC50 at CRBN was 19.6 µM. Also, the EC50 at SALL4 was determined as 4.82 µM. `CN(C)c1ccc2c(c1)C(=O)N(C1CCC(=O)NC1=O)C2` (stereo not shown) [Compound C96622, 3-[6-(dimethylamino)-1-oxo-isoindolin-2-yl]piperidine-2,6-dione]: at CRBN, the IC50 came to 0.214 µM. Turning to `O=C1CCC(Nc2ncc3ccccc3n2)C(=O)N1` (stereo not shown) [Compound C97402, 3-(quinazolin-2-ylamino)piperidine-2,6-dione], at CRBN, the concentration for half-maximal inhibition (IC50) was 6.32 µM. Consider `CC(C)(C)OC(=O)CC1c2ccccc2C(=O)N1C1CCC(=O)NC1=O` (stereo not shown) [Compound C98053, t-butyl 2-[2-(2,6-dioxo-3-piperidyl)-3-oxo-isoindolin-1-yl]acetate], for which the IC50 on CRBN turned out to be 5.77 µM. With `O=C1CC=CC(C(=O)NC2CCC(=O)NC2=O)=N1` (stereo not shown) [Compound C98696, N-(2,6-dioxo-3-piperidyl)-2-oxo-3H-pyridine-6-carboxamide], the IC50 at CRBN was 9.34 µM. The same measure, in the same setting: as for `O=C1CCC(N2Cc3cccc([N+](=O)[O-])c3C2=O)C(=O)N1` (stereo not shown) [Compound C99884, 3-(7-nitro-1-oxo-isoindolin-2-yl)piperidine-2,6-dione], the figure is 1.37 µM. In the case of `O=C1CCC(N2C(=O)c3ccccc3C2=O)C(=O)N1` (stereo not shown) [THL, Thalidomide, reference compound], at ASS1, the “EC50_ASS1 (M)” value is “>>”.
